Where two headings read alike, the source gives them in different places.
Assays:
[1] = system: Keratin-14, Keratin-10, epidermal transglutaminase (TGM1); experiment: RT-PCR expression analysis of squamous tissue genes in NMC 797 cells; type: cell-based, human
NMC 797 cells = experiment: Flow cytometry for DNA content, NMC 797; type: cell-based, human; settings: 250 nM, 48 h
Procedure: Data is presented as mean±s.d. (n=3). IC50 values were calculated by logistic regression. […] Data points are mean±s.d. (n=3). […] PI, propidium iodide. […] A significant response to therapy is observed by two-tailed t-test at 14 days (p=0.039). Data represent the mean±s.d. (n=7). […] Expanded fields are provided in Supplementary FIGS. 11, 12. […] Quantitative analysis of keratin induction was performed using image masking (FIG. 5J, right panel) and pixel positivity analysis (FIG. 5K). A significant response to therapy is observed by two-tailed t-test (p=0.0001). Data represent the mean±s.d. of three independent wide microscopic fields.

GFP-BRD4 = GFP-BRD4 (Homo sapiens (Human), UniProt O60885)
NMC 11060 xenografts = experiment: Patient-derived NMC 11060 primary xenograft study; type: in vivo, mice; settings: 50 mg kg^−1 daily for four days
Source text: In parallel with these studies, a patient with widely metastatic BRD4-NUT positive NMC arising from the mediastinum was identified. With the goal of developing a more clinically-relevant disease model, short-term cultures were established using discarded clinical material obtained from pleural fluid draining from a palliative chest tube in the patient.

NMC 11060 cells = experiment: Flow cytometry for DNA content, NMC 11060; type: cell-based, human; settings: 250 nM, 48 h
Procedure: Data is presented as mean±s.d. (n=3). IC50 values were calculated by logistic regression. […] Data points are mean±s.d. (n=3).

NMC 797 and Per403 cells = experiment: Differentiation and proliferation immunohistochemistry, NMC cells; type: cell-based, human
Source text: Direct inhibition of gene products expressed from recurrent, oncogenic translocations is a validated therapeutic approach in cancer^28,29. The phenotypic consequences of chemical inhibition of BET-family bromodomains on the BRD4-dependent NUT midline carcinoma was explored. BRD4-NUT chromatin localization is mechanistically linked to the preserved tandem bromodomains of BRD4 in the fusion protein^17. A characteristic feature of NMC is the appearance of discrete nuclear speckles of the BRD4-NUT oncoprotein by NUT-directed immunohistochemistry (IHC)^30.
A striking differentiation phenotype is observed with knock-down of BRD4-NUT in NMC cell lines^17. […] Differentiation was prompt (<24 hours) and characterized by markedly augmented expression of cytokeratin, a hallmark of squamous differentiation (FIG. 3h).

[2] = Pharmacokinetic studies in CD1 mice; settings: for AUC: CD1, mouse, plasma
797 cells = experiment: Cell proliferation assay, 797 cell line; type: cell-based; settings: Homo sapiens, read-out: Cell-assay IC50 797 cells
Procedure: Curve fit was calculated by logistical regression.
Cells were seeded into white, 384-well microtiter plates (Nunc) at 500 cells per well in a total volume of 50 μL media. […] Compounds were delivered to microtiter assay plates by robotic pin transfer (PerkinElmer JANUS equipped with a V&P Scientific 100 nL pin tool). Following a 48 h incubation at 37° C., cells were lysed and wells were assessed for total ATP content using a commercial proliferation assay (Cell TiterGlo; Promega). Replicate measurements were analyzed with respect to dose and estimates of IC50 were calculated by logistic regression (GraphPad Prism).

CBP = CBP (Homo sapiens (Human), UniProt Q92793); experiment: AlphaScreen profiling against CBP; type: binding
Procedure: (§1) Assays were performed as described previously^8 with minor modifications from the manufacturer's protocol (PerkinElmer, USA). All reagents were diluted in 50 mM HEPES, 100 mM NaCl, 0.1% BSA, pH 7.4 supplemented with 0.05% CHAPS and allowed to equilibrate to room temperature prior to addition to plates. […] Plates were sealed and incubated for a further 30 minutes, before the addition of 4 μl of streptavidin-coated donor beads (25 μg/ml) and 4 μl nickel chelate acceptor beads (25 μg/ml) under low light conditions. Plates were foil-sealed to protect from light, incubated at room temperature for 60 minutes and read on a PHERAstar FS plate reader (BMG Labtech, Germany) using an AlphaScreen 680 excitation/570 emission filter set. IC50 values were calculated in Prism 5 (GraphPad Software, USA) after normalization against corresponding DMSO controls and are given as the final concentration of compound in the 20 μl reaction volume.

BET family members = experiment: AlphaScreen profiling against other BET family members; type: binding, human
BRD4(2) = BRD4(2) (Homo sapiens (Human), UniProt O60885); experiment: Alpha-assay acetyl-histone binding, BRD4 site 2; settings: 12-point dose response curve; for IC50: read-out: Bio-assay IC50 BRD4(2)
BRD4(1) = BRD4(1) (Homo sapiens (Human), UniProt O60885); experiment: Alpha-assay acetyl-histone binding, BRD4 site 1; settings: 12-point dose response curve; for IC50: read-out: Bio-assay IC50 BRD4(1)
Procedure: The binding activity of lead compounds with the BRD4 site 1 was determined by Alpha-assay with a 12-point dose response curve (FIG. 56A).
as §1

[3] = Unspecified biological assay
GFP-BRD4-NUT = GFP-BRD4-NUT (Homo sapiens (Human), UniProt O60885+Q86Y26); settings: 500 nM, compared to vehicle control
Procedure: (§2) FRAP studies were performed on U2OS cells as previously described^3,20. In brief, U2OS cells were transfected (lipofectamine; Invitrogen) with mammalian overexpression constructs encoding GFP chimera with BRD4, NUT and BRD4-NUT. A 5 μm^2 nuclear region was bleached with high laser intensity in one cell within each field, and measured for recovery with low laser intensity and a 150 μm pinhole. Images of identical fields were acquired using a Nikon Cl Plus confocal microscope equipped with a 37° C. heated chamber and FRAP modules over 90 seconds. Average intensities of the bleached region were measured over time and using MetaMorph v7, and normalized to an independent region of interest before bleaching.

BRD3-NUT cells = experiment: BRD3-NUT xenograft study; type: in vivo, mice; settings: 50 mg/kg IP 7 days/week
Source text: Mice were implanted subcutaneously with BRD3-NUT cells. Tumor measurement data were collected weekly. […] On day 24 post-injection, five mice from each group were euthanized and tumor samples were collected to be sent for lab analysis. Throughout the remainder of the study tumor samples were collected as mice were sacrificed. For all samples one half of the tumor was fixed in 10% formalin and the other half was flash frozen on dry ice. Treatment ended on day 32. Tumor volume and weights were collected weekly until all mice either became moribund or tumors reached 2 cm in any dimension. […] Upon cessation of therapy, tumor growth resumed. Tumor volume differences were significant at all points (p=7.65274E-09 at Day 24).

NMC 797 xenografts = experiment: NMC 797 xenograft efficacy study
Procedure: Prior to randomization and after four days of therapy, mice were evaluated by PET imaging.
To capture comparative mechanistic and pharmacodynamic data, all animals were sacrificed and tumors were explanted for histopathologic analysis.
Animals were followed daily for clinical symptoms. Tumor measurements were assessed by caliper measurements, and volume calculated using the formula Vol=0.5×L×W^2. After 2 weeks of treatment, all mice were humanely euthanized, and tumors were fixed in 10% formalin for histopathological examination. Statistical significance of tumor volumes was calculated by two-sided Students t-test. All animal studies were approved by the IACUC of the DFCI.

TT and TE10 = experiment: Cell proliferation assay, non-NMC squamous carcinoma lines; type: cell-based, human; settings: TT and TE10, 250 nM, 72 hours
Procedure: Data is presented as mean±s.d. (n=3). IC50 values were calculated by logistic regression.

TE10 and TT = experiment: Differentiation immunohistochemistry, non-BRD4-dependent squamous carcinoma lines; type: cell-based, human
[4] = system: BRD4-dependent human carcinoma cells; experiment: Annexin-V/propidium iodide flow cytometry, BRD4-dependent carcinoma cells; type: cell-based; settings: 500 nM, 24 or 48 hours
Procedure: Thus, early and late apoptosis was assessed with annexin-V and propidium iodide staining by flow cytometry.
Trypsinized cells were mixed 1:1 on ice with Annexin-V/propidium iodide buffer (10 mM HEPES pH 7.4, 140 mM NaCl, 2.5 mM CaCl2) containing Annexin V-FITC (BD Pharmingen, 1:500) and propidium iodide (Invitrogen, 1:1000). Samples were immediately analyzed on a BD FACS Canto II. Visualizations and analyses of apoptotic fractions were generated using FlowJo flow cytometry analysis software (Tree Star, Inc.).

cellular receptors = experiment: Off-target effects on cellular receptors
GFP-NUT = GFP-NUT (Homo sapiens (Human), UniProt Q86Y26); experiment: FRAP in U2OS cells, GFP-NUT; settings: 500 nM
Chain of GFP-NUT (Q86Y26 whole entry, looked up): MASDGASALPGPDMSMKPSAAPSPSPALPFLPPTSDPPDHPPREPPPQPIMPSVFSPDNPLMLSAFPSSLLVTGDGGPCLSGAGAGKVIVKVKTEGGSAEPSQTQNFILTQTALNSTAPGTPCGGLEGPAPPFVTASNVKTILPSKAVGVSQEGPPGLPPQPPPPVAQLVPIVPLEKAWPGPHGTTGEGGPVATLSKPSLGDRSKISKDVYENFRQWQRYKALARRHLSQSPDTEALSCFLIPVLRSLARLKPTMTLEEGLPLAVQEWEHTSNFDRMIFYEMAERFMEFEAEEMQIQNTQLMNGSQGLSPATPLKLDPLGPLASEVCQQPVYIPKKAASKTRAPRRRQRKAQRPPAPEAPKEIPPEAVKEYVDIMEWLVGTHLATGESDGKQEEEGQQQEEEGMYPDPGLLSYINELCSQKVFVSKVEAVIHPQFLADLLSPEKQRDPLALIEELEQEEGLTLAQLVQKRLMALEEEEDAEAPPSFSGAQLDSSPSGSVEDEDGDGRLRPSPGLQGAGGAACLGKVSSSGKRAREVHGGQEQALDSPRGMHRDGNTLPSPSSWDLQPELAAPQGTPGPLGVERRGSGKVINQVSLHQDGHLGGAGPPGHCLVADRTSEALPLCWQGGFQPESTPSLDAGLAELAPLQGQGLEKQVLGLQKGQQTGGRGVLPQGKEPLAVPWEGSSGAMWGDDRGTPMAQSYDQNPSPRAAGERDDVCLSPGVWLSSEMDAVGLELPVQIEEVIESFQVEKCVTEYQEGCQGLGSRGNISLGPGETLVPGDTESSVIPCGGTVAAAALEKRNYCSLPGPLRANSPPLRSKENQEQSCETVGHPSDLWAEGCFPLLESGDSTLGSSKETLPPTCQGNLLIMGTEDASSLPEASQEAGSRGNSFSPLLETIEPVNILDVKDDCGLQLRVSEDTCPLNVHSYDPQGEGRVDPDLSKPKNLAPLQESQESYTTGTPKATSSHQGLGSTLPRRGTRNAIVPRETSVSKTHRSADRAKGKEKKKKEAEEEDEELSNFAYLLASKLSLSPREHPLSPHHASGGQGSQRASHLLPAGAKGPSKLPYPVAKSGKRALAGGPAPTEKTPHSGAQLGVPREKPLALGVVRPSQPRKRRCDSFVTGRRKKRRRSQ
Procedure: as §2

Chain of CBP (Q92793 whole entry): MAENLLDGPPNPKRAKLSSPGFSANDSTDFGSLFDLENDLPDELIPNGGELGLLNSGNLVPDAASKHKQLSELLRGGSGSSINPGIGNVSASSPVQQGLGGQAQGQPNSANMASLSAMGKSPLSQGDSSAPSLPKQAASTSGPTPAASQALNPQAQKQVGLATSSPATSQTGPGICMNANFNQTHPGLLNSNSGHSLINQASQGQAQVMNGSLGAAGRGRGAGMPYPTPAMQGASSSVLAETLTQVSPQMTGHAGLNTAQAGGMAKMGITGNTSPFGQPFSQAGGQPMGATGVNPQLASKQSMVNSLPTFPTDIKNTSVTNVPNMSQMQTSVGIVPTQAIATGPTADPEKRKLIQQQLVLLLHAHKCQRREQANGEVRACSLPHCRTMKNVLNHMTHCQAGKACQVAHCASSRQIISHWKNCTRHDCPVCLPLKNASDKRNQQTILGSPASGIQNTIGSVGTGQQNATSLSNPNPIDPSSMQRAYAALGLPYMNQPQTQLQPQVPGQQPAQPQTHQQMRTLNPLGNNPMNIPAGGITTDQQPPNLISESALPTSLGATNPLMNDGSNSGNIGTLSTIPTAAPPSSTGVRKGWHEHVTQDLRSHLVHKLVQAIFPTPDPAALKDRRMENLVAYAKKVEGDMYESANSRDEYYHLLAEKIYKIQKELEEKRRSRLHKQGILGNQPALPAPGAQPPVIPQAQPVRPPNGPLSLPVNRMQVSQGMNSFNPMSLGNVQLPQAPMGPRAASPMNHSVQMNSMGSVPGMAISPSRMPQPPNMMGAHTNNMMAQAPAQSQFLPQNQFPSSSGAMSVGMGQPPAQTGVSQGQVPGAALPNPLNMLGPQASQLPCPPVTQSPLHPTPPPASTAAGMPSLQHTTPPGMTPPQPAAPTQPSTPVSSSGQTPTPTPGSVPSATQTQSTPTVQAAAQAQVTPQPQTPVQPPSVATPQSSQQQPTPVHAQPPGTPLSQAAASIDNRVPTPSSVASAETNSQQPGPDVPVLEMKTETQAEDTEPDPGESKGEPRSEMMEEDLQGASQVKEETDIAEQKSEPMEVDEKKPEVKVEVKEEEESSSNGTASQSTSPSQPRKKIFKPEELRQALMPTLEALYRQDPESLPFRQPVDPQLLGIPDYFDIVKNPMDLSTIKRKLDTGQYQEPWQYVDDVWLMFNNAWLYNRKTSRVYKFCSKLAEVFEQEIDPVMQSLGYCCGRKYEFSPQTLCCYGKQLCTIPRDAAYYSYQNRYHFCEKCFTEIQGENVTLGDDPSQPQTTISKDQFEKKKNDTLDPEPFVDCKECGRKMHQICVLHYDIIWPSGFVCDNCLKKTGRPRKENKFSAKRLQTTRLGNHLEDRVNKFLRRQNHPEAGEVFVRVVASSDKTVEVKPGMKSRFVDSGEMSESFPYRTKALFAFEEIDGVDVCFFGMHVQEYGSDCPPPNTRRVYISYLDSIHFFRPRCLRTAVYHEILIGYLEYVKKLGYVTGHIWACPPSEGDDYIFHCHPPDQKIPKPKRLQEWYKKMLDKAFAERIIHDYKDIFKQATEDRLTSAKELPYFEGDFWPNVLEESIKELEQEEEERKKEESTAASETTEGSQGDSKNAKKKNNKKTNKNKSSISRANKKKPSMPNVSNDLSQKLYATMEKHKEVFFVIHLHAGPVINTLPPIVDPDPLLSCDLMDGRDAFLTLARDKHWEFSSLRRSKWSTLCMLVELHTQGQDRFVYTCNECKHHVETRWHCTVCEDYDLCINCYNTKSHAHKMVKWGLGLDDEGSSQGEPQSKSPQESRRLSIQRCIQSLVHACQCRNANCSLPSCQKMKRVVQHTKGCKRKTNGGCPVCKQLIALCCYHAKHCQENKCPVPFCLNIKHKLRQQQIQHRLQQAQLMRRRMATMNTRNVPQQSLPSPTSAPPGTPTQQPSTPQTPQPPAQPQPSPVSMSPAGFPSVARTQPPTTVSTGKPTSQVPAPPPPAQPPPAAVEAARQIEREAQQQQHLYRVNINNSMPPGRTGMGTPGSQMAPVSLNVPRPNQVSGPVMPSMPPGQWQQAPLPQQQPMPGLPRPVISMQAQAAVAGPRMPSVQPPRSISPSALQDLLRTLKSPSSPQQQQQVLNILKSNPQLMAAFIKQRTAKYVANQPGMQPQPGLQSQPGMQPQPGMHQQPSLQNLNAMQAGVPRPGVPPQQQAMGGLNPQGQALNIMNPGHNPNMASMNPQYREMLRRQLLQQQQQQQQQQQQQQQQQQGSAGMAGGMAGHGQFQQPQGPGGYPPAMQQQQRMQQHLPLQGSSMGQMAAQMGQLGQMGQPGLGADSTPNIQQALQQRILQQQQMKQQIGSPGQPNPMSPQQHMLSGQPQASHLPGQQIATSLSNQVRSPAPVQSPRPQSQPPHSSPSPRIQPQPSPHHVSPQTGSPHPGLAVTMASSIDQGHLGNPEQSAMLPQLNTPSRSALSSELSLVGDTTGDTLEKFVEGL

Cc1sc2c(c1C)C(c1ccc(Cl)cc1)=N[C@@H](CC(=O)OC(C)(C)C)c1nnc(C)n1-2 (single isomer, unassigned) [(+)-JQ1]
effect on epidermal transglutaminase (TGM1) [1]: absent effect
induction of Keratin-10 [1]: modest induction
cell cycle (DNA content) (NMC 797 cells): induced a G1 arrest
fluorescence recovery of GFP-BRD4 (GFP-BRD4; 250 nM, 5 h, compared to vehicle control): enhanced recovery
FDG uptake by PET imaging (NMC 11060 xenografts): marked response on FDG uptake
tumor keratin expression, quantitative IHC (NMC 11060 xenografts): induction of keratin expression
cell cycle (DNA content) (NMC 11060 cells): induces a G1 arrest
differentiation and growth arrest phenotypes (NMC 797 and Per403 cells; BRD4-dependent NMC cells): differentiation and growth arrest phenotypes are prompted
AUC ([2]; iv, 5 mg/kg): 2090 ng·h/mL
AUC ([2]; po, 10 mg/kg): 2090 ng·h/mL
half-life (T1/2) ([2]; CD1 mice, intravenous 5 mg kg^−1): approximately one

Cc1sc2c(c1C)C(c1ccc(Cl)cc1)=N[C@H](CC(=O)OC(C)(C)C)c1nnc(C)n1-2 [(R)-JQ1]
IC50 (797 cells; 72 h): 1540 nM

Cc1sc2c(c1C)C(c1ccc(Cl)cc1)=N[C@@H](CC(=O)OC(C)(C)C)c1nnc(C)n1-2 [JQ1S]
binding and inhibition of CBP (CBP): inactive
binding and inhibition of BET family members (BET family members): active

Cc1sc2c(c1C)C(c1ccc(Cl)cc1)=N[C@@H](CC(=O)N/N=C/c1ncc[nH]1)c1nnc(C)n1-2 [JQ6]
binding activity with the BRD4 site 2 (BRD4(2)): excellent binding activity
binding activity with the BRD4 site 1 (BRD4(1)): excellent binding activity

Cc1sc2c(c1C)C(c1ccc(Cl)cc1)=N[C@@H](CC(=O)NCCc1cnc[nH]1)c1nnc(C)n1-2 [JQ8]
binding activity with the BRD4 site 2 (BRD4(2)): excellent binding activity
binding activity with the BRD4 site 1 (BRD4(1)): excellent binding activity

Cc1sc2c(c1C)C(c1ccc(Cl)cc1)=N[C@@H](CC(=O)NCCN1CCN(C)CC1)c1nnc(C)n1-2 [JQ13]
binding activity with the BRD4 site 2 (BRD4(2)): excellent binding activity
IC50 (BRD4(2)): 0.584 nM
binding activity with the BRD4 site 1 (BRD4(1)): excellent binding activity
IC50 (BRD4(1)): 2.49 nM
IC50 (797 cells; proliferation after 72 hours): 10900 nM

Cc1sc2c(c1C)C(c1ccc(Cl)cc1)=NC(CC(=O)NCCN1CCOCC1)c1nnc(C)n1-2 (centres unmarked) [JQ33]
binding activity with the BRD4 site 2 (BRD4(2)): excellent binding activity
IC50 (BRD4(2)): 29.5 nM
binding activity with the BRD4 site 1 (BRD4(1)): excellent binding activity
IC50 (BRD4(1)): 85 nM

Cc1sc2c(c1C)C(c1ccc(Cl)cc1)=NC(CC(=O)NCCCN1CCN(C)CC1)c1nnc(C)n1-2 (centres unmarked) [JQ35]
binding activity with the BRD4 site 2 (BRD4(2)): excellent binding activity
binding activity with the BRD4 site 1 (BRD4(1)): excellent binding activity

Cc1sc2c(c1C)C(c1ccc(Cl)cc1)=NC(CC(=O)NN)c1nnc(C)n1-2 (centres unmarked) [hydrazide (3)]
activity in at least one biological assay [3]: showed activity

Cc1sc2c(c1C)C(c1ccc(Cl)cc1)=NC(CC(=O)NN=Cc1ccc(O)cc1)c1nnc(C)n1-2 (centres unmarked) [hydrazone (4)]
activity in at least one biological assay [3]: showed activity

tert-Butyl 2-(4-(4-chlorophenyl)-2,3,9-trimethyl-6H-thieno[3,2-f][1,2,4]triazolo[4,3-a][1,4]diazepin-6-yl)acetate [JQ1]
time-to-recovery of fluorescence intensity, GFP-BRD4-NUT (GFP-BRD4-NUT): markedly accelerated time-to-recovery of fluorescence intensity
body weight (BRD3-NUT cells): mild weight loss with rapid recovery after cessation of therapy
tumor volume (BRD3-NUT cells): tumor regression while on therapy
fluorescence recovery of GFP-BRD4 (GFP-BRD4; U2OS cells, 500 nM): observed recovery is immediate
tumor growth (tumor volume by caliper) (NMC 797 xenografts; 50 mg kg^−1 daily intraperitoneal, 14 days): statistically-significant reduction in tumor growth
FDG uptake by PET imaging (NMC 797 xenografts; 50 mg kg^−1 daily intraperitoneal, four days): marked response on FDG uptake
tumor keratin expression, quantitative IHC (NMC 797 xenografts; 50 mg kg^−1 daily, excised tumors): strong (3+) keratin expression
NUT nuclear speckles in sectioned tumor tissue (NMC 797 xenografts; 50 mg kg^−1 daily, excised tumors, IHC): effacement of NUT nuclear speckles
effect on cell proliferation (TT and TE10): Minimal effects observed on cell proliferation
differentiation effects (TE10 and TT): fail to exhibit differentiation effects
nuclear NUT foci by IHC (NMC 797 and Per403 cells; 797 NMC cell line, 500 nM, 48 hours): effaced nuclear foci
time to differentiation (NMC 797 and Per403 cells; NMC 797 and Per403 cells): < 24 h
apoptosis (annexin-V and propidium iodide staining) [4]: induced immediate and progressive apoptosis
off-target effects on cellular receptors (cellular receptors): few off-target effects on cellular receptors
oral bioavailability (F) ([2]; CD1 mice, oral 10 mg kg^−1): 49%
redistribution of GFP-NUT (GFP-NUT): no effect was observed

Reference: patent publication US9320741B2, “Compositions and methods for treating neoplasia, inflammatory disease and other disorders” (Dana-Farber Cancer Institute, Inc., priority 2010, dated 2016)
